Values of other authors, collected in US20210213050A1, “Compositions and Methods for the Removal of Extraneous Calcium Hydroxyapatite” (HENRY FORD HEALTH SYSTEM, priority 2018, published 2021).
Values belong to the molecule of their own block, whether it stands above or below them.

Tests used:
[1] = fold higher than CaHA; proposed mechanism

CaHA remaining after topical treatment alone (porcine skin, topical SMB alone, histology after approximately 24 hours): approximately 50%
Structure (SMILES): O=S([O-])S(=O)(=O)[O-].[Na+].[Na+] [SMB, sodium metabisulfite]

Structure (SMILES): O=S([O-])([O-])=S.[Ca+2] [calcium thiosulfate salt, calcium thiosulfate]
solubility of calcium thiosulfate salt relative to CaHA [1]: 250- to 100,000 fold

Structure (SMILES): O=S([O-])([O-])=S.[Na+].[Na+] [sodium thiosulfate]
ability to dissolve previously injected CaHA microspheres (porcine skin samples injected subdermally with CaHA, intralesional sodium thiosulfate 0.2 mL, 12.5 g/50 mL, alone or with topical sodium metabisulfite): able to dissolve previously injected CaHA microspheres
visible CaHA microspheres on histologic analysis of the treated area (porcine skin, intralesional sodium thiosulfate, 24 hours later): no visible CaHA microspheres were observed
